Data from patent US20230093861A1, “RAPAMYCIN ANALOGS AS MTOR INHIBITORS” (Revolution Medicines, Inc., priority 2017, published 2023).
Where two headings read alike, the source gives them in different places.

How the values were obtained:
P-P70S6K (T389) = assay: Cell based AlphaLISA assay, inhibition of P-P70S6K (T389) (mTORC1 substrate phosphorylation) in MDA-MB-468 cells; conditions: Homo sapiens, 4 h, two to four hours at 37° C.
Description: (§1) Cell Based AlphaLISA Assays for Determining IC50 for Inhibition of P-Akt (S473), P-4E-BP1 (T37/46), and P-P70S6K (T389) in MDA-MB-468 Cells
(§2) mTOR Kinase Cellular Assay
(§3) To measure functional activity of mTORC1 and mTORC2 in cells the phosphorylation of 4EBP1 (Thr37/46) and P70S6K (Thr389), and AKT1/2/3 (Ser473) was monitored using AlphaLisa SureFire Ultra Kits (Perkin Elmer). […] Incubations were terminated by removal of the assay buffer and addition of lysis buffer provided with the assay kit. Samples were processed according to the manufacturer's instructions. The Alpha signal from the respective phosphoproteins was measured in duplicate using a microplate reader (Envision, Perkin-Elmer or Spectramax M5, Molecular Devices). Inhibitor concentration response curves were analyzed using normalized IC50 regression curve fitting with control based normalization.

P-4E-BP1 (T37/46) = assay: Cell based AlphaLISA assay, inhibition of P-4E-BP1 (T37/46) (mTORC1 substrate phosphorylation) in MDA-MB-468 cells; conditions: Homo sapiens, two to four hours at 37° C.
Description: as §1, §2, §3

P-Akt (S473) = assay: Cell based AlphaLISA assay, inhibition of P-Akt (S473) (mTORC2 substrate phosphorylation) in MDA-MB-468 cells; conditions: Homo sapiens, two to four hours at 37° C.
Description: as §1, §2, §3

[1] = AlphaLISA, read-out: pIC50 for Inhibition of mTORC1 and mTORC2 Substrate Phosphorylation, P-P70S6K-(T389) (converted)
[2] = MDA-MB-468, 4 h, AlphaLISA, read-out: pIC50 for Inhibition of mTORC1 and mTORC2 Substrate Phosphorylation, P-4E-BP1-(T37/46) (converted)
[3] = MDA-MB-468, 4 h, AlphaLISA, read-out: pIC50 for Inhibition of mTORC1 and mTORC2 Substrate Phosphorylation, p-AKT 1/2/3 -(S473) (converted)

Structure (SMILES)	IC50 (P-P70S6K (T389); [1])	IC50 (P-4E-BP1 (T37/46); [2])	IC50 (P-Akt (S473); [3])	IC50 (P-P70S6K (T389); AlphaLisa SureFire Ultra, read-out: IC50 for Inhibition of mTORC1 and mTORC2 Substrate Phosphorylation, p-P70S6K-(T389))	IC50 (P-4E-BP1 (T37/46); MDA-MB-468, 4 h, AlphaLisa SureFire Ultra, read-out: IC50 for Inhibition of mTORC1 and mTORC2 Substrate Phosphorylation, p-4E-BP1-(T37/46))	IC50 (P-Akt (S473); MDA-MB-468, 4 h, AlphaLisa SureFire Ultra, read-out: IC50 for Inhibition of mTORC1 and mTORC2 Substrate Phosphorylation, p-AKT1/2/3-(S473))	IC50 (P-4E-BP1 (T37/46); 4 h, AlphaLISA, read-out: pIC50 for Inhibition of mTORC1 and mTORC2 Substrate Phosphorylation, P-4E-BP1-(T37/46) (converted))	IC50 (P-Akt (S473); 4 h, AlphaLISA, read-out: pIC50 for Inhibition of mTORC1 and mTORC2 Substrate Phosphorylation, p-AKT 1/2/3 -(S473) (converted))
CO[C@H]1C[C@@H]2CC[C@@H](C)[C@@](O)(O2)C(=O)C(=O)N2CCCC[C@H]2C(=O)O[C@H]([C@H](C)C[C@@H]2CC[C@H](n3cc(-c4cnc(N5CCN(c6ncc(C(=O)NCCOCCOCCOCCOCCOCCC(=O)NCCCCn7nc(-c8ccc9oc(N)nc9c8)c8c(N)ncnc87)cn6)CC5)nc4)nn3)[C@H](OC)C2)CC(=O)[C@H](C)/C=C(\C)[C@@H](O)[C@@H](OC)C(=O)[C@H](C)C[C@H](C)/C=C/C=C/C=C/1C [Example 118]	< 1 nM	< 3.16 nM	3.16 to 31.6 nM					
CO[C@H]1C[C@@H]2CC[C@@H](C)[C@@](O)(O2)C(=O)C(=O)N2CCCC[C@H]2C(=O)O[C@H]([C@H](C)C[C@@H]2CC[C@@H](OCCCCc3cn(CCOCCOCCOCCOCCOCCOCCC(=O)N4CCC(Cn5nc(-c6ccc7oc(N)nc7c6)c6c(N)ncnc65)C4)nn3)[C@H](OC)C2)CC(=O)[C@H](C)/C=C(\C)[C@@H](O)[C@@H](OC)C(=O)[C@H](C)C[C@H](C)/C=C/C=C/C=C/1C (stereo partly shown) [Example 8]	< 1 nM	< 3.16 nM	3.16 to 31.6 nM					
CO[C@H]1C[C@@H]2CC[C@@H](C)[C@@](O)(O2)C(=O)C(=O)N2CCCC[C@H]2C(=O)O[C@H]([C@H](C)C[C@@H]2CC[C@@H](OC(=O)NCc3cn(CCOCCOCCOCCOCCOCCOCCOCCOCCC(=O)NCCCCn4nc(-c5ccc6oc(N)nc6c5)c5c(N)ncnc54)nn3)[C@H](OC)C2)CC(=O)[C@H](C)/C=C(\C)[C@@H](O)[C@@H](OC)C(=O)[C@H](C)C[C@H](C)/C=C/C=C/C=C/1C [Example 61]	1 to 10 nM	3.16 to 31.6 nM	3.16 to 31.6 nM					
CO[C@@H]1C[C@H](C[C@@H](C)[C@@H]2CC(=O)[C@H](C)/C=C(\C)[C@@H](O)[C@@H](OC)C(=O)[C@H](C)C[C@H](C)/C=C/C=C/C=C(\C)[C@@H](c3ccco3)C[C@@H]3CC[C@@H](C)[C@@](O)(O3)C(=O)C(=O)N3CCCC[C@H]3C(=O)O2)CC[C@H]1OCCCCc1cn(CCOCCOCCOCCOCCOCCOCCC(=O)NCCCCn2nc(-c3ccc4oc(N)nc4c3)c3c(N)ncnc32)nn1 (stereo in doubt) [Example 19]	< 1 nM							
CO[C@H]1C[C@@H]2CC[C@@H](C)[C@@](O)(O2)C(=O)C(=O)N2CCCC[C@H]2C(=O)O[C@H]([C@H](C)C[C@@H]2CC[C@H](n3cc(CCCC(=O)NCCOCCOCCOCCOCCC(=O)NCCOCCOCCOCCOCCC(=O)NCCCCn4nc(-c5ccc6oc(N)nc6c5)c5c(N)ncnc54)nn3)[C@H](OC)C2)CC(=O)[C@H](C)/C=C(\C)[C@@H](O)[C@@H](OC)C(=O)[C@H](C)C[C@H](C)/C=C/C=C/C=C/1C [Example 134]	1 to 10 nM	3.16 to 31.6 nM	3.16 to 31.6 nM					
CO[C@H]1C[C@@H]2CC[C@@H](C)[C@@](O)(O2)C(=O)C(=O)N2CCCC[C@H]2C(=O)O[C@H]([C@H](C)C[C@@H]2CC[C@H](n3nncc3-c3cccc(-c4cnc(N5CCN(Cc6cn(CCOCCOCCOCCC(=O)NCCCCn7nc(-c8ccc9oc(N)nc9c8)c8c(N)ncnc87)nn6)CC5)nc4)c3)[C@H](OC)C2)CC(=O)[C@H](C)/C=C(\C)[C@@H](O)[C@@H](OC)C(=O)[C@H](C)C[C@H](C)/C=C/C=C/C=C/1C [Example 31]	< 1 nM	< 3.16 nM	3.16 to 31.6 nM					
CO[C@H]1C[C@@H]2CC[C@@H](C)[C@@](O)(O2)C(=O)C(=O)N2CCCC[C@H]2C(=O)O[C@H]([C@H](C)C[C@@H]2CC[C@H](n3cc(CCCC(=O)NCCOCCOCCOCCOCCC(=O)NCCOCCOCCOCCOCCC(=O)NCCCCn4nc(-c5cc6cc(O)ccc6[nH]5)c5c(N)ncnc54)nn3)[C@H](OC)C2)CC(=O)[C@H](C)/C=C(\C)[C@@H](O)[C@@H](OC)C(=O)[C@H](C)C[C@H](C)/C=C/C=C/C=C/1C [Example 135]	1 to 10 nM	3.16 to 31.6 nM	31.6 to 1000 nM					
CO[C@H]1C[C@@H]2CC[C@@H](C)[C@@](O)(O2)C(=O)C(=O)N2CCCC[C@H]2C(=O)O[C@H]([C@H](C)C[C@@H]2CC[C@@H](OCCOCc3cn(CCOCCOCCOCCOCCOCCOCCOCCOCCC(=O)NCCCCn4nc(-c5ccc6oc(N)nc6c5)c5c(N(C)C)ncnc54)nn3)[C@H](OC)C2)CC(=O)[C@H](C)/C=C(\C)[C@@H](O)[C@@H](OC)C(=O)[C@H](C)C[C@H](C)/C=C/C=C/C=C/1C [Example 9]	< 1 nM	> 1000 nM	> 1000 nM					
CO[C@H]1C[C@@H]2CC[C@@H](C)[C@@](O)(O2)C(=O)C(=O)N2CCCCC2C(=O)O[C@H]([C@H](C)C[C@@H]2CC[C@H](n3cc(COCCOCCOCCOCCOCCOCCOCCOCCOCCOCCC(=O)NCCCCn4nc(-c5ccc6oc(N)nc6c5)c5c(N)ncnc54)nn3)[C@H](OC)C2)CC(=O)[C@H](C)/C=C(\C)[C@@H](O)[C@@H](OC)C(=O)[C@H](C)C[C@H](C)/C=C/C=C/C=C/1C (stereo in doubt) [Example 195]	1 to 10 nM	3.16 to 31.6 nM	3.16 to 31.6 nM					
CO[C@H]1C[C@@H]2CC[C@@H](C)[C@@](O)(O2)C(=O)C(=O)N2CCCC[C@H]2C(=O)O[C@H]([C@H](C)C[C@@H]2CC[C@@H](OCCCCc3cn(CCOCCOCCOCCOCCOCCOCCOCCOCCC(=O)NCCCCn4nc(-c5ccc6oc(N)nc6c5)c5c(N)ncnc54)nn3)[C@H](OC)C2)CC(=O)[C@H](C)/C=C(\C)[C@@H](O)[C@@H](OC)C(=O)[C@H](C)C[C@H](C)/C=C/C=C/C=C/1C [Example 1]	< 1 nM	< 3.16 nM	< 3.16 nM	0.3 nM	1 nM	3.9 nM		
CO[C@H]1C[C@@H]2CC[C@@H](C)[C@@](O)(O2)C(=O)C(=O)N2CCCC[C@H]2C(=O)O[C@H]([C@H](C)C[C@@H]2CC[C@H](n3nncc3-c3cccc(-c4cnc(N5CCN(Cc6cn(CCOCCOCCOCCOCCC(=O)NCCCCn7nc(-c8ccc9oc(N)nc9c8)c8c(N)ncnc87)nn6)C(CO)C5)nc4)c3)[C@H](OC)C2)CC(=O)[C@H](C)/C=C(\C)[C@@H](O)[C@@H](OC)C(=O)[C@H](C)C[C@H](C)/C=C/C=C/C=C/1C (stereo partly shown) [Example 33]	1 to 10 nM	3.16 to 31.6 nM	3.16 to 31.6 nM					
CO[C@H]1C[C@@H]2CC[C@@H](C)[C@@](O)(O2)C(=O)C(=O)N2CCCC[C@H]2C(=O)O[C@H]([C@H](C)C[C@@H]2CC[C@@H](OCc3cccc(-c4cnc(N5CCN(Cc6cn(CCOCCOCCOCCOCCC(=O)NCCCCn7nc(-c8ccc9oc(N)nc9c8)c8c(N)ncnc87)nn6)C(CO)C5)nc4)c3)[C@H](OC)C2)CC(=O)[C@H](C)/C=C(\C)[C@@H](O)[C@@H](OC)C(=O)[C@H](C)C[C@H](C)/C=C/C=C/C=C/1C (stereo partly shown) [Example 24]	< 1 nM	< 3.16 nM	3.16 to 31.6 nM					
CO[C@H]1C[C@@H]2CC[C@@H](C)[C@@](O)(O2)C(=O)C(=O)N2CCCC[C@H]2C(=O)O[C@H]([C@H](C)C[C@@H]2CC[C@@H](O)[C@H](OC)C2)C[C@@H](OC)[C@H](C)/C=C(\C)[C@@H](O)[C@@H](OC)/C(=N\OCc2cn(CCOCCOCCOCCOCCOCCOCCC(=O)NCCCCn3nc(-c4ccc5oc(N)nc5c4)c4c(N)ncnc43)nn2)[C@H](C)C[C@H](C)/C=C/C=C/C=C/1C [Example 15]	1 to 10 nM	3.16 to 31.6 nM	31.6 to 1000 nM					
CO[C@H]1C[C@@H]2CC[C@@H](C)[C@@](O)(O2)C(=O)C(=O)N2CCCC[C@H]2C(=O)O[C@H]([C@H](C)C[C@@H]2CC[C@H](n3cc(-c4cccc(C(=O)NCCOCCOCCOCCC(=O)NCCOCCOCCOCCC(=O)NCCCCn5nc(-c6cc7cc(O)ccc7[nH]6)c6c(N)ncnc65)c4)nn3)[C@H](OC)C2)CC(=O)[C@H](C)/C=C(\C)[C@@H](O)[C@@H](OC)C(=O)[C@H](C)C[C@H](C)/C=C/C=C/C=C/1C [Example 138]	1 to 10 nM	> 1000 nM	31.6 to 1000 nM					
CO[C@H]1C[C@@H]2CC[C@@H](C)[C@@](O)(O2)C(=O)C(=O)N2CCCC[C@H]2C(=O)O[C@H]([C@H](C)C[C@@H]2CC[C@@H](OCCCCc3cn(CCOCCOCCOCCOCCOCCOCCC(=O)NCCCCn4nc(-c5cc6cc(O)ccc6[nH]5)c5c(N)ncnc54)nn3)[C@H](OC)C2)CC(=O)[C@H](C)/C=C(\C)[C@@H](O)[C@@H](OC)C(=O)[C@H](C)C[C@H](C)/C=C/C=C/C=C/1C [Example 43]	< 1 nM						31.6 to 1000 nM	31.6 to 1000 nM
